Source: PMC9653409, “Generative deep learning enables the discovery of a potent and selective RIPK1 inhibitor” (Nature Communications, 2022)
Read-outs that look alike come from different tables or passages of the source.

Experiments:
Test in all cases: Kinase inhibitory activity profiling of RI-962@10 µM (406 kinases, Eurofins)
Format in all cases: biochemical
[1] = biological target: panel of human kinases (kinase named in endpoint) (Homo sapiens, UniProt O15111); conditions: 10 µM; read-out: Activity (%), IKKα(h)
Method in brief: (§1)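 Radiometric filter-binding kinase assays: enzyme preincubated 15 min with compound in 8 mM MOPS pH 7.0, 0.2 mM EDTA, 250 μM peptide substrate, 10 mM magnesium acetate, 10 μM [γ-33P]-ATP. Reaction started with Mg/ATP, run 40 min at room temperature, stopped with phosphoric acid; 33P incorporation read by scintillation counting. Other kinases by similar protocols.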

[2] = biological target: panel of human kinases (kinase named in endpoint) (Homo sapiens, UniProt O96017); conditions: 10 µM; read-out: Activity (%), CHK2(h)
Method in brief: as §1

[3] = biological target: panel of human kinases (kinase named in endpoint) (Homo sapiens, UniProt O96017, I157T); conditions: 10 µM; read-out: Activity (%), CHK2(I157T)(h)
Method in brief: as §1

[4] = biological target: panel of human kinases (kinase named in endpoint) (Homo sapiens, UniProt P06213); conditions: 10 µM
Method in brief: as §1

[5] = biological target: panel of human kinases (kinase named in endpoint) (Homo sapiens, UniProt P08069); conditions: 10 µM
Method in brief: as §1

[6] = biological target: panel of human kinases (kinase named in endpoint) (Homo sapiens, UniProt P08581, Y1230D); conditions: 10 µM; read-out: Activity (%), Met(Y1248D)(h)
Method in brief: as §1

[7] = biological target: panel of human kinases (kinase named in endpoint) (Homo sapiens, UniProt P09619); conditions: 10 µM; read-out: Activity (%), PDGFRβ(h)
Method in brief: as §1

[8] = biological target: panel of human kinases (kinase named in endpoint) (Homo sapiens, UniProt P10721, D816V); conditions: 10 µM; read-out: Activity (%), cKit(D816V)(h)
Method in brief: as §1

[9] = biological target: panel of human kinases (kinase named in endpoint) (Homo sapiens, UniProt P16234, D842V); conditions: 10 µM; read-out: Activity (%), PDGFRα(D842V)(h)
Method in brief: as §1

[10] = biological target: panel of human kinases (kinase named in endpoint) (Homo sapiens, UniProt P22607); conditions: 10 µM; read-out: Activity (%), FGFR3(h)
Method in brief: as §1

[11] = biological target: panel of human kinases (kinase named in endpoint) (Homo sapiens, UniProt P42336); conditions: 10 µM
Method in brief: as §1

[12] = biological target: panel of human kinases (kinase named in endpoint) (Homo sapiens, UniProt P42680); conditions: 10 µM; read-out: Activity (%), Tec(h) activated
Method in brief: as §1

[13] = biological target: panel of human kinases (kinase named in endpoint) (Homo sapiens, UniProt P53667); conditions: 10 µM; read-out: Activity (%), LIMK1(h)
Method in brief: as §1

[14] = biological target: panel of human kinases (kinase named in endpoint) (Homo sapiens, UniProt Q02156); conditions: 10 µM; read-out: Activity (%), PKCε(h)
Method in brief: as §1

[15] = biological target: panel of human kinases (kinase named in endpoint) (Homo sapiens, UniProt Q15418); conditions: 10 µM; read-out: Activity (%), Rsk1(h)
Method in brief: as §1

[16] = biological target: panel of human kinases (kinase named in endpoint) (Homo sapiens, UniProt Q5S007); conditions: 10 µM; read-out: Activity (%), LRRK2(h)
Method in brief: as §1

[17] = biological target: panel of human kinases (kinase named in endpoint) (Homo sapiens, UniProt Q8NE63); conditions: 10 µM; read-out: Activity (%), HIPK4(h)
Method in brief: as §1

[18] = biological target: panel of human kinases (kinase named in endpoint) (Homo sapiens, UniProt Q8NG66); conditions: 10 µM; read-out: Activity (%), NEK11(h)
Method in brief: as §1

[19] = biological target: panel of human kinases (kinase named in endpoint) (Homo sapiens, UniProt Q96QT4); conditions: 10 µM; read-out: Activity (%), ChaK1(h)
Method in brief: as §1

[20] = biological target: panel of human kinases (kinase named in endpoint) (Homo sapiens, UniProt Q9H2G2); conditions: 10 µM; read-out: Activity (%), SLK(h)
Method in brief: as §1

[21] = biological target: panel of human kinases (kinase named in endpoint) (Homo sapiens, UniProt Q9H422); conditions: 10 µM; read-out: Activity (%), HIPK3(h)
Method in brief: as §1

[22] = biological target: panel of human kinases (kinase named in endpoint) (Homo sapiens, UniProt Q9NSY1); conditions: 10 µM; read-out: Activity (%), BIKe(h)
Method in brief: as §1

[23] = biological target: panel of human kinases (kinase named in endpoint) (Homo sapiens, UniProt Q9UEE5); conditions: 10 µM; read-out: Activity (%), DRAK1(h)
Method in brief: as §1

[24] = biological target: panel of human kinases (kinase named in endpoint) (Homo sapiens, UniProt Q9Y2K2); conditions: 10 µM; read-out: Activity (%), SIK3(h)
Method in brief: as §1

[25] = biological target: panel of human kinases (kinase named in endpoint) (Homo sapiens, UniProt Q9Y4K4); conditions: 10 µM; read-out: Activity (%), MAP4K5(h)
Method in brief: as §1

Chain of panel of human kinases (kinase named in endpoint) (Homo sapiens, UniProt P06213) (P06213 28-1382): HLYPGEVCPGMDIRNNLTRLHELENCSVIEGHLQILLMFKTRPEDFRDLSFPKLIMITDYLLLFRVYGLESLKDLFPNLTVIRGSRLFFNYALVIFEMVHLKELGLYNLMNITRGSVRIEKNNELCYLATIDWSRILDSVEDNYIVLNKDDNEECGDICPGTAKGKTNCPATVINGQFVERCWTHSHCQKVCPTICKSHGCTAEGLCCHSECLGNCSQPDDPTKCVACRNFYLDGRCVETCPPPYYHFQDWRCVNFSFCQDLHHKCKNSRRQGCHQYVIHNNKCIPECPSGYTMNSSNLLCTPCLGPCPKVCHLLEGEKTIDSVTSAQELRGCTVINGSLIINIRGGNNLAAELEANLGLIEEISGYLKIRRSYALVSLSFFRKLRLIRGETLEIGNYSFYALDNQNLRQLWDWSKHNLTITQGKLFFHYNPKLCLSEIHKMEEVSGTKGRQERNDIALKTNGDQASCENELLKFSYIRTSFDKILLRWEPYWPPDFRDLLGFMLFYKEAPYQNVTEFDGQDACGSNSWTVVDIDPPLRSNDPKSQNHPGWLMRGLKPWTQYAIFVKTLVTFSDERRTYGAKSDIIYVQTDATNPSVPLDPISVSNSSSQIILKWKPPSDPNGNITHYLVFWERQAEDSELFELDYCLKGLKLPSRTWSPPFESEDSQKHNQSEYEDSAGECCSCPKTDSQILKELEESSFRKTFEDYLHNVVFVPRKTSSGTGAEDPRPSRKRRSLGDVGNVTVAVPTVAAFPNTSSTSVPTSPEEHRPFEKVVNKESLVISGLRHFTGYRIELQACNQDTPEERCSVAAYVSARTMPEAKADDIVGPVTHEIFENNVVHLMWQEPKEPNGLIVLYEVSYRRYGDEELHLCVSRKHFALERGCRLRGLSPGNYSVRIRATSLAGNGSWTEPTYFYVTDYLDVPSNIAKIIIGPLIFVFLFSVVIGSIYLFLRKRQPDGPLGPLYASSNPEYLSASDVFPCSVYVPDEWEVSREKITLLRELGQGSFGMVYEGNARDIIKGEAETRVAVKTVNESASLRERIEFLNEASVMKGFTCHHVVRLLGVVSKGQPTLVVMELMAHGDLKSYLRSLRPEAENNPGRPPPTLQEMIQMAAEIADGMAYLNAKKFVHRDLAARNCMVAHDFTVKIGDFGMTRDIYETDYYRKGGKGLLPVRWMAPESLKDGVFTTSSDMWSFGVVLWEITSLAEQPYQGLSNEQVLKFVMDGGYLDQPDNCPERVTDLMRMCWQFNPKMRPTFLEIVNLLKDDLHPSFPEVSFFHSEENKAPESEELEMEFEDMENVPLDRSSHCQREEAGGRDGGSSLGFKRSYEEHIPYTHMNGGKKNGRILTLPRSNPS
Chain of panel of human kinases (kinase named in endpoint) (Homo sapiens, UniProt P08069) (P08069 31-1367): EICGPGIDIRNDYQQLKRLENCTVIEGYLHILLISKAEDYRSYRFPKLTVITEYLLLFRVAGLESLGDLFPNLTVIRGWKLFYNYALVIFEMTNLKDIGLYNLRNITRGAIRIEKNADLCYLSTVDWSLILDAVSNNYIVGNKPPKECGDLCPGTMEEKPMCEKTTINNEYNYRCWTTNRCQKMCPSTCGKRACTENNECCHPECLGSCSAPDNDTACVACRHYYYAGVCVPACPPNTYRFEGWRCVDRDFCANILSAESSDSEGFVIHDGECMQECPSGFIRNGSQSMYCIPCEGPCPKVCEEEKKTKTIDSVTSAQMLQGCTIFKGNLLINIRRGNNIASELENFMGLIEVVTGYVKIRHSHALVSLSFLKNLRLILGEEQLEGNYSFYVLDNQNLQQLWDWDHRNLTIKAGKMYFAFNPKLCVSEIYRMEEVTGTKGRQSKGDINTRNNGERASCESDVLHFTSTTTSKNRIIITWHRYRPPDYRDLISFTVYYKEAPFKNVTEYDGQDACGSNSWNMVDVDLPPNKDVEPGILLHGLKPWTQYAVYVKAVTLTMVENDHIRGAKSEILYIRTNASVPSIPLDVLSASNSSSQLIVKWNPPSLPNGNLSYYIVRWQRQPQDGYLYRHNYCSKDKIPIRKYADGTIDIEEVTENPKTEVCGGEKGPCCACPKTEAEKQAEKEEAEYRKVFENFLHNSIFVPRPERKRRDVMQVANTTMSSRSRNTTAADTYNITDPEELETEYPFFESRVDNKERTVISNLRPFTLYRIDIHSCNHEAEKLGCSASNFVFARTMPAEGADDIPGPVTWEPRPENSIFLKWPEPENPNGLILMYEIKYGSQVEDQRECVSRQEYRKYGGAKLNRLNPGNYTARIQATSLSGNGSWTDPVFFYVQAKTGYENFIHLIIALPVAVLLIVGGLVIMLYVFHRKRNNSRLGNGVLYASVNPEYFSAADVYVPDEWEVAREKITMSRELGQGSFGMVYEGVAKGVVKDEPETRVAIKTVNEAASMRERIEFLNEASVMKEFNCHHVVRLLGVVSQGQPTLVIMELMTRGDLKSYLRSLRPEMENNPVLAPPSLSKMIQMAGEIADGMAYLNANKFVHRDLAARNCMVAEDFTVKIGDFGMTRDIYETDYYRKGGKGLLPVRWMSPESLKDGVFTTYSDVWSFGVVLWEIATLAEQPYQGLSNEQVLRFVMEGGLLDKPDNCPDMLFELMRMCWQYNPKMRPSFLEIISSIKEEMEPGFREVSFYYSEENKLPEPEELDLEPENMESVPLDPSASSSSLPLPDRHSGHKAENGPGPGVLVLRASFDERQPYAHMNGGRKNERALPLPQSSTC
Chain of panel of human kinases (kinase named in endpoint) (Homo sapiens, UniProt P42336) (P42336 whole entry): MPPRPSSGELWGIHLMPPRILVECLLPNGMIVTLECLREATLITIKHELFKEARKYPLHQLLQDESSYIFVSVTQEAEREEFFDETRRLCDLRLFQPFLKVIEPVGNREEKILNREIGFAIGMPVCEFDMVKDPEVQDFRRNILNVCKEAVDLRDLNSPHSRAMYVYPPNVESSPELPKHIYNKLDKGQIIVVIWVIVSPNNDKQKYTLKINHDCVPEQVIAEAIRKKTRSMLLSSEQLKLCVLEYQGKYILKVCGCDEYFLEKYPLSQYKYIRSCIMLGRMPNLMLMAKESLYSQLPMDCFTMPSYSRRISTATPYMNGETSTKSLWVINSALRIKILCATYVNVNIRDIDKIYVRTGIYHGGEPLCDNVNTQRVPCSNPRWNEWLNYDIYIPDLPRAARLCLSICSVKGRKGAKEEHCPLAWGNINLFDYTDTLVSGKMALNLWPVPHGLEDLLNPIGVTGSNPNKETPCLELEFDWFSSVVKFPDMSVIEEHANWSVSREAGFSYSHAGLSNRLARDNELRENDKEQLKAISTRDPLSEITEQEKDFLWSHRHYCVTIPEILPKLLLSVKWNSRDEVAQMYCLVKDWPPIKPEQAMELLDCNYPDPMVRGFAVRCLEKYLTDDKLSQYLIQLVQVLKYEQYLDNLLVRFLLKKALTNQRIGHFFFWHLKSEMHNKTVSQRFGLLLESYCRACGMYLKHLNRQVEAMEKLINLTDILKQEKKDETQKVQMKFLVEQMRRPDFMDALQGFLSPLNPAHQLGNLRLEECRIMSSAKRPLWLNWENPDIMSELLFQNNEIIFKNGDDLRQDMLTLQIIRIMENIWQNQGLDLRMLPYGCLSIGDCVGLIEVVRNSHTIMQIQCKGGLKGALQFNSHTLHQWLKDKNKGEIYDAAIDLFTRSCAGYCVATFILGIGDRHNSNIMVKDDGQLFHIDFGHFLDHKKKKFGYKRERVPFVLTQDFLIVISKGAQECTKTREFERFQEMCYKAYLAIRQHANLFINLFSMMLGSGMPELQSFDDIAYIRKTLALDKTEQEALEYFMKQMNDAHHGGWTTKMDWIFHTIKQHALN
Chain of panel of human kinases (kinase named in endpoint) (Homo sapiens, UniProt O96017) (O96017 whole entry): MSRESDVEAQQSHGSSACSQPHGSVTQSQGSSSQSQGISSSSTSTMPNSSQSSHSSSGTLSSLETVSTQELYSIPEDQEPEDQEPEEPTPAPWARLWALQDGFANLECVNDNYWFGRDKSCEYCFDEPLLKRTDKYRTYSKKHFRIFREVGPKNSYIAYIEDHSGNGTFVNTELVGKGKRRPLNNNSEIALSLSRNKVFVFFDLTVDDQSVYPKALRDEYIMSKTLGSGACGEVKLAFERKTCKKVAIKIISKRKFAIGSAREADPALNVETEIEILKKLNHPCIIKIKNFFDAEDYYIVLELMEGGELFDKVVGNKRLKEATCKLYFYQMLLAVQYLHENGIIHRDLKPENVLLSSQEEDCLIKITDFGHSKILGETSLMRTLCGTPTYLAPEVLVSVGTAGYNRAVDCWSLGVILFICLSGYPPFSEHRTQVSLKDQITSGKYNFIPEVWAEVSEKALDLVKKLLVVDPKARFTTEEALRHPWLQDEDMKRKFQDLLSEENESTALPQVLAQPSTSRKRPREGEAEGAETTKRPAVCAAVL
Chain of panel of human kinases (kinase named in endpoint) (Homo sapiens, UniProt O15111) (O15111 whole entry): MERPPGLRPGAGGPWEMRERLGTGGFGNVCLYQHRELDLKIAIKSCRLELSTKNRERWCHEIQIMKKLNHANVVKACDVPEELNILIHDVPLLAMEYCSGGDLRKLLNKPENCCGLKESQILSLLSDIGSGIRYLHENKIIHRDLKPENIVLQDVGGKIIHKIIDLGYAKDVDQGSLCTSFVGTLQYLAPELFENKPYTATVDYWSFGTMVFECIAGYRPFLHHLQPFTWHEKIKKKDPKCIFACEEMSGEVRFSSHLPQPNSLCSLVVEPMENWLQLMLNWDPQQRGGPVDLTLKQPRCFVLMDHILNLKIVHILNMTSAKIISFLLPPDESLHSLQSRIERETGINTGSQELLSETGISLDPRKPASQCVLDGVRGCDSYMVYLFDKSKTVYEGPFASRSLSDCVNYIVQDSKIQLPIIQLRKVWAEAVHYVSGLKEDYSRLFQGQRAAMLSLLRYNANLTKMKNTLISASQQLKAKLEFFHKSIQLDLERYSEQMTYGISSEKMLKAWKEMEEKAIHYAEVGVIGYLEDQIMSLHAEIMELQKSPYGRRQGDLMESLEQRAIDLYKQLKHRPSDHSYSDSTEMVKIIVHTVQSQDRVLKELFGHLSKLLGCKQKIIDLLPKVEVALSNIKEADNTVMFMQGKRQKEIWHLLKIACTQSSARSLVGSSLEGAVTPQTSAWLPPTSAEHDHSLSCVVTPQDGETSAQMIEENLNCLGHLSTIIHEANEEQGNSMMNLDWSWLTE
Chain of panel of human kinases (kinase named in endpoint) (Homo sapiens, UniProt O96017, I157T) (O96017 whole entry I157T): as the sequence (O96017 whole entry) above, with I157T counted along it

Question: Which results are given for `CC(C)C(=O)Nc1nc2cc(-c3ccc4c(c3)c(C(=O)NC(C)c3ccccc3)cn4C)ccn2n1` (stereo not shown) [RI-962]?
Answer: activity at 10 µM [1]: 101%; activity at 10 µM [2]: 98%; activity at 10 µM [3]: 92%; activity at 10 µM ([4]; read-out: Activity (%), IR(h)): 103%; activity at 10 µM ([4]; read-out: Activity (%), IR(h), activated): 89%; activity at 10 µM ([5]; read-out: Activity (%), IGF-1R(h)): 94%; activity at 10 µM ([5]; read-out: Activity (%), IGF-1R(h), activated): 92%; activity at 10 µM [6]: 110%; activity at 10 µM [7]: 107%; activity at 10 µM [8]: 97%; activity at 10 µM [9]: 104%; activity at 10 µM [10]: 72%; activity at 10 µM ([11]; read-out: Activity (%), PI3 Kinase (p110a/p65a)(h)): 97%; activity at 10 µM ([11]; read-out: Activity (%), PI3 Kinase (p110a/p85a)(h)): 94%; activity at 10 µM [12]: 103%; activity at 10 µM [13]: 97%; activity at 10 µM [14]: 99%; activity at 10 µM [15]: 120%; activity at 10 µM [16]: 102%; activity at 10 µM [17]: 71%; activity at 10 µM [18]: 89%; activity at 10 µM [19]: 85%; activity at 10 µM [20]: 84%; activity at 10 µM [21]: 89%; activity at 10 µM [22]: 60%; activity at 10 µM [23]: 100%; activity at 10 µM [24]: 100%; activity at 10 µM [25]: 100%
